The values below come from US20050234041A1, “Substituted 1-benzazepines and derivatives thereof” (priority 2001, published 2005).

≈ marks a conversion by molar mass, not a printed value. Read-outs that look alike come from different tables or passages of the source. A value given as a limit tells only on which side of the number the result lay.

One assay concerns Campylobacter jejuni. In words: MIC, broth dilution method, Campylobacter jejuni. It is filed as cell-based. Conditions: for MIC: Campylobacter jejuni. The text has this:
(§1) Antibacterial activity can be determined by several standard methods well known by those skilled in the art, including disc diffusions methods, broth dilution minimal inhibitory concentration (MIC) methods, etc., including the detailed method outlined below and as defined by the National Committee of Clinical Laboratory Standards in the United States.
(§2) MIC, Broth Dilution Method
(§3) Cultures of bacteria are initially brought up from the freezer stocks onto chocolate agar plates by streaking a loop-full, then incubated for 18 hours at 35-37° C. in a 5% CO2 incubator.
(§4) Five to 10 colonies are picked from the chocolate agar plate for subculture to Brain-Heart Infusion (BHI) broth or Mueller Hinton broth or BHI containing 4% serum and incubated as described.
(§5) Evaluate the optical density of the organisms in the wells of a 96 well microtiter plate with and without the test compound. The optical density of the organisms in the presence of an active compound will be less than the optical density of the same organism untreated. The activity of the compounds is described as either negative or the lowest concentration inhibiting growth. The results are depicted in Table III, where +/− represents the least activity and ++++ represents the greatest activity. In Table IV, the results are depicted where MIC represents the lowest concentration of antibiotic that inhibits bacterial growth.
(In general: In broth dilution the organism is exposed to a series of concentrations in liquid medium.)

The next assay relates to Helicobacter pylori. In words: MIC, broth dilution method, Helicobacter pylori. The class given is cell-based. As to conditions: for MIC: Helicobacter pylori.
From the text: as §1, §2, §3, §4, §5

[1] abbreviates: Table V, read-out: MIC (μg/mL) C. jejuni.
Where [2] appears, read: Table V, read-out: MIC (μg/mL) H. pylori.
Where [3] appears, read: Table IV, MIC, lowest concentration that inhibits bacterial growth, read-out: Antibacterial Activity (micrograms/ml) Campylobacter jejuni.
[4] abbreviates: Table IV, MIC, lowest concentration that inhibits bacterial growth, read-out: Antibacterial Activity (micrograms/ml) Helicobacter pylori.
[5] abbreviates: Table IV, MIC, lowest concentration that inhibits bacterial growth.

As for `COc1ccc2c(c1)N(CC(=O)OC(C)(C)C)C(=O)C(C(=O)OC(C)(C)C)CC2` (racemic) [Example 200, 1-(tert-Butoxycarbonyl)methyl-3(R,S)-tert-butoxycarbonyl-8-methoxy-2,3,4,5-tetrahydro-1H-1-benzazepine-2-one], the MIC with Campylobacter jejuni (setting [1]) was above 250 µg/mL; with Helicobacter pylori (setting [2]), 15 µg/mL (≈ 37 µM).

Take `COc1ccc2c(c1)N(Cc1cccc(F)c1)C(=O)C(C(=O)OC(C)(C)C)CC2` (racemic) [Example 25, 3(R,S)-tert-Butoxycarbonyl-1-(3-fluorobenzyl)-8-methoxy-2,3,4,5-tetrahydro-1H-1-benzazepine-2-one]: the MIC in the assay with Campylobacter jejuni (setting [3]) is above 200 µg/mL; with Helicobacter pylori (setting [4]), 12.5 µg/mL (≈ 31.3 µM).

`CCN1C(=O)CCCc2ccc(N)cc21` [Example 190, 8-Amino-1-ethyl-2,3,4,5-tetrahydro-1H-1-benzazepine-2-one]: the figures for the MIC with Campylobacter jejuni (setting [1]) and with Helicobacter pylori (setting [2]) were 250 µg/mL (≈ 1220 µM) and 64 µg/mL (≈ 313 µM), respectively.

With `COc1ccc2c(c1)N(Cc1cccc(F)c1)C(=O)C(C(=O)O)CC2` (racemic) [Example 184, 3(R,S)-carboxyl-1-(3-fluorobenzyl)-8-methoxy-2,3,4,5-tetrahydro-1H-1-benzazepine-2-one], the values for the MIC in the assay on Campylobacter jejuni (setting [1]) and in the assay with Helicobacter pylori (setting [2]) were above 250 µg/mL and 125 µg/mL (≈ 364 µM), respectively.

Regarding `COc1cc2c(cc1N)CCC(C(=O)OC(C)(C)C)C(=O)N2` (racemic) [Example 199, 7-Amino-3(R,S)-tert-butoxycarbonyl-8-methoxy-2,3,4,5-tetrahydro-1H-1-benzazepine-2-one], the MIC in the assay with Campylobacter jejuni (setting [1]) was above 250 µg/mL; in the assay with Helicobacter pylori (setting [2]), 125 µg/mL (≈ 408 µM).

Turning to `COc1cccc2c1CCCC(=O)N2` [Example 186, 6-Methoxy-2,3,4,5-tetrahydro-1 H-1-benzazepine-2-one], the MIC with Campylobacter jejuni (setting [1]) is above 250 µg/mL; in the assay with Helicobacter pylori (setting [2]), 64 µg/mL (≈ 335 µM).

With `COc1ccc2c(c1)N(CCOC1CCCCO1)C(=O)C(C(=O)OC(C)(C)C)CC2` (racemic) [Example 221, 3(R,S)-tert-Butoxycarbonyl-8-methoxy-1-[2-(tetrahydro-2H-pyran-2-yl)oxyethyl]-2,3,4,5-tetrahydro-1H-1-benzazepine-2-one], the MIC was above 250 µg/mL with Campylobacter jejuni (setting [1]) and 15 µg/mL (≈ 35.8 µM) in the assay with Helicobacter pylori (setting [2]).

As to `CCOC(=O)C1CCc2ccc(OC)cc2N(CC)C1=O` (racemic) [Example 4, 3(R,S)-Ethoxycarbonyl-1-ethyl-8-methoxy-2,3,4,5-tetrahydro-1H-1-benzazepine-2-one], the MIC with Campylobacter jejuni (setting [3]) was 50 µg/mL (≈ 172 µM); in the assay on Helicobacter pylori (setting [4]), 125 to 250 µg/mL (≈ 429 to 858 µM).

Regarding `COc1ccc2c(c1)N(CC(N)=O)C(=O)C(C(=O)OC(C)(C)C)CC2` (racemic) [Example 201, 1-(Aminocarbonyl)methyl-3(R,S)-tert-butyloxycarbonyl-8-methoxy-2,3,4,5-tetrahydro-1H-1-benzazepine-2-one], the values for the MIC with Campylobacter jejuni (setting [1]) and in the assay with Helicobacter pylori (setting [2]) were above 250 µg/mL and 60 µg/mL (≈ 172 µM), respectively.

Take `COc1ccc2c(c1)N(CCC1OCCO1)C(=O)C(C(=O)OC(C)(C)C)CC2` (racemic) [Example 223, 3(R,S)-tert-Butoxycarbonyl-8-methoxy-1-[2-(1,3-dioxolan-2-yl)ethyl]-2,3,4,5-tetrahydro-1H-1-benzazepine-2-one]: the figures for the MIC with Campylobacter jejuni (setting [1]) and in the assay with Helicobacter pylori (setting [2]) were above 250 µg/mL and 60 µg/mL (≈ 153 µM), respectively.

Take `CCOC(=O)NC(=O)N(C(=O)NC(=O)OCC)c1cc2c(cc1OC)NC(=O)C(C(=O)OC(C)(C)C)CC2` (racemic) [Example 204, 3(R,S)-tert-Butoxycarbonyl-7-di(ethoxycabonylaminocarbonyl)amino-8-methoxy-2,3,4,5-tetrahydro-1H-1-benzazepine-2-one]: in the assay with Campylobacter jejuni (Table V), the “MIC (μg/mL) C. jejuni” value was >250, μg/mL. Moreover, the “MIC (μg/mL) H. pylori” value in the assay on Helicobacter pylori (Table V) came out at 60 µg/mL (≈ 112 µM).

Take `CCN1C(=O)C(C(=O)OC(C)(C)C)CCc2cc(N3CCN(C(=O)OCc4ccccc4)CC3)c(OC)cc21` (racemic) [Example 26, 7-[(4-benzyloxycarbonyl)-piperazin-1-yl]-3(R,S)-tert-butoxycarbonyl-1-ethyl-8-methoxy-2,3,4,5-tetrahydro-1H-1-benzazepine-2-one]: the “Antibacterial Activity (micrograms/ml) Campylobacter jejuni” value in the assay with Campylobacter jejuni (setting [5]) amounted to 125 micrograms/ml. Further, the “Antibacterial Activity (micrograms/ml) Helicobacter pylori” value in the assay with Helicobacter pylori (setting [5]) stood at 12.5 micrograms/ml.

As for `CCN1C(=O)CCCc2cc(N3CCN(C(=O)OC(C)(C)C)CC3)c(OC)cc21` [Example 21, 7-[(4-tert-butoxycarbonylpiperazin)-1-yl]-1-ethyl-8-methoxy-2,3,4,5-tetrahydro-1H-1-benzazepine-2-one], in the assay on Campylobacter jejuni (setting [5]), the “Antibacterial Activity (micrograms/ml) Campylobacter jejuni” value is reported as above 200 micrograms/ml. Further, in the assay with Helicobacter pylori (setting [5]), the “Antibacterial Activity (micrograms/ml) Helicobacter pylori” value is on record as 12.5-25 micrograms/ml.

`CCN1C(=O)C(C(=O)OC)CCc2cc(Br)c(OC)cc21` (racemic) [Example 28, 7-bromo-1-ethyl-3(R,S)-methoxycarbonyl-8-methoxy-2,3,4,5-tetrahydro-1H-1-benzazepine-2-one]: the figures for the MIC with Campylobacter jejuni (setting [3]) and in the assay on Helicobacter pylori (setting [4]) were above 200 µg/mL and 25 µg/mL (≈ 70.2 µM), respectively.

For the compound `CCOC(=O)C1(CC)CCc2ccc(OC)cc2N(CC)C1=O` (racemic) [Example 6, 1,3-Diethyl-3(R,S)-ethoxycarbonyl-8-methoxy-2,3,4,5-tetrahydro-1H-1-benzazepine-2-one], the MIC in the assay on Campylobacter jejuni (setting [3]) is 50 µg/mL (≈ 157 µM); in the assay with Helicobacter pylori (setting [4]), 12.5 µg/mL (≈ 39.1 µM).

Consider `O=C1CCCc2ccc([N+](=O)[O-])cc2N1` [Example 181, 8-Nitro-2,3,4,5-tetrahydro-1H-1-benzazepine-2-one], for which the MIC was determined as 125 µg/mL (≈ 606 µM) with Campylobacter jejuni (setting [1]) and 250 µg/mL (≈ 1210 µM) with Helicobacter pylori (setting [2]).

Regarding `CCN1C(=O)C(Br)(C(=O)OC)CCc2cc(Br)c(OC)cc21` (racemic) [Example 27, 3,7-dibromo-1-ethyl-3(R,S)-methoxycarbonyl-8-methoxy-2,3,4,5-tetrahydro-1H-benzazepine-2-one], the values for the MIC in the assay with Campylobacter jejuni (setting [3]) and in the assay with Helicobacter pylori (setting [4]) were above 200 µg/mL and 12.5 µg/mL (≈ 28.7 µM), respectively.

Turning to `CC(C)(C)OC(=O)C1CCc2ccc(O)cc2N(C(=O)OC(C)(C)C)C1=O` (racemic) [Example 183, 1,3(R,S)-Di(tert-butoxycarbonyl)-8-hydroxy-2,3,4,5-tetrahydro-1H-1-benzazepine-2-one], the MIC with Campylobacter jejuni (setting [1]) stood at 125 µg/mL (≈ 331 µM); in the assay with Helicobacter pylori (setting [2]), 64 µg/mL (≈ 170 µM).

Consider `CCN1C(=O)CCCc2ccc([N+](=O)[O-])cc21` [Example 182, 8-Nitro-1-ethyl-2,3,4,5-tetrahydro-1H-1-benzazepine-2-one], for which the MIC in the assay on Campylobacter jejuni (setting [1]) was found to be 8 µg/mL (≈ 34.2 µM); in the assay on Helicobacter pylori (setting [2]), 16 µg/mL (≈ 68.3 µM).

As for `CCN1C(=O)C(C(=O)OC(C)(C)C)CCc2cc(N3CCN(C(=O)OC(C)(C)C)CC3)c(OC)cc21` (racemic) [Example 14, 3(R,S)-tert-Butoxycarbonyl-7-[(4-tert-butoxycarbonyl-piperazin)-1-yl]-1-ethyl-8-methoxy-2,3,4,5-tetrahydro-1H-1-benzazepine-2-one], in the assay with Campylobacter jejuni (setting [5]), the “Antibacterial Activity (micrograms/ml) Campylobacter jejuni” value was above 200 micrograms/ml. The “Antibacterial Activity (micrograms/ml) Helicobacter pylori” value with Helicobacter pylori (setting [5]) was found to be 50 micrograms/ml.

For `O=C1CCCc2cc(O)ccc2N1` [Example 189, 7-Hydroxy-2,3,4,5-tetrahydro-H-1-benzazepine-2-one], the MIC with Campylobacter jejuni (setting [1]) is above 250 µg/mL; in the assay with Helicobacter pylori (setting [2]) it was 125 µg/mL (≈ 705 µM).

For `COc1cc2c(cc1[N+](=O)[O-])CCC(C(=O)OC(C)(C)C)C(=O)N2` (racemic) [Example 198, 3(R,S)-tert-Butoxycarbonyl-8-methoxy-7-nitro-2,3,4,5-tetrahydro-1H-1-benzazepine-2-one], the MIC in the assay on Campylobacter jejuni (setting [1]) is 60 µg/mL (≈ 178 µM); with Helicobacter pylori (setting [2]), 4 µg/mL (≈ 11.9 µM).

For `CCN1C(=O)C(CC)(C(=O)O)CCc2ccc(OC)cc21` (racemic) [Example 7, 3(R,S)-Carboxyl-1,3-diethyl-8-methoxy-2,3,4,5-tetrahydro-1H-1-benzazepine-2-one], the MIC in the assay on Campylobacter jejuni (setting [3]) is above 200 µg/mL; in the assay on Helicobacter pylori (setting [4]), 100 µg/mL (≈ 343 µM).

For the compound `CCOc1ccc2c(c1)N(CC)C(=O)C(C(=O)OC(C)(C)C)CC2` (racemic) [Example 180, 8-Ethoxy-3(R,S)-tert-butoxycarbonyl-1-ethyl-2,3,4,5-tetrahydro-1H-1-benzazepine-2-one], the MIC in the assay on Campylobacter jejuni (setting [1]) is above 200 µg/mL; with Helicobacter pylori (setting [2]), 32 µg/mL (≈ 96 µM).

With `CCN1C(=O)CCCc2ccc(Br)cc21` [Example 191, 8-Bromo-1-ethyl-2,3,4,5-tetrahydro-1H-1-benzazepine-2-one], the MIC turned out to be 8 µg/mL (≈ 29.8 µM) with Campylobacter jejuni (setting [1]) and 16 µg/mL (≈ 59.7 µM) in the assay with Helicobacter pylori (setting [2]).

As for `CCN1C(=O)C(C(=O)OC(C)(C)C)CCc2ccc(O[Si](C)(C)C(C)(C)C)cc21` (racemic) [Example 179, 3(R,S)-tert-Butoxycarbonyl-8-tert-Butyldimethylsilyloxy-1-ethyl-2,3,4,5-tetrahydro-1H-1-benzazepine-2-one], the MIC in the assay with Campylobacter jejuni (setting [1]) was above 200 µg/mL; with Helicobacter pylori (setting [2]) it was 16 µg/mL (≈ 38.1 µM).

Turning to `COc1ccc2c(c1)N(CC#N)C(=O)C(C(=O)OC(C)(C)C)CC2` (racemic) [Example 196, 3(R,S)-tert-Butoxycarbonyl-1-cyanomethyl-8-methoxy-2,3,4,5-tetrahydro-1H-1-benzazepine-2-one], the MIC stood at 30 µg/mL (≈ 90.8 µM) with Campylobacter jejuni (setting [1]) and 4 µg/mL (≈ 12.1 µM) in the assay with Helicobacter pylori (setting [2]).

As to `COc1ccc2c(c1)NC(=O)C(C(=O)NO)CC2` (stereo not shown) [Example 197, 3-Hydoxyaminocarbonyl-8-methoxy-2,3,4,5-tetrahydro-1H-1-benzazepine-2-one], the MIC in the assay with Campylobacter jejuni (setting [1]) was above 250 µg/mL; in the assay on Helicobacter pylori (setting [2]), 125 µg/mL (≈ 499 µM).

With `COc1ccc2c(c1)CCCC(=O)N2` [Example 185, 7-Methoxy-2,3,4,5-tetrahydro-1H-1-benzazepine-2-one], the figures for the MIC in the assay on Campylobacter jejuni (setting [1]) and with Helicobacter pylori (setting [2]) were 32 µg/mL (≈ 167 µM) and 125 µg/mL (≈ 654 µM), respectively.
